Columns and labels:
chondroitinase ABC [1] = biological target: T1, chondroitinase ABC (Proteus vulgaris, UniProt P59807); experiment: Disc dissolution assay with bovine tail nucleus pulposus, absorbance at 232 nm; assay type: biochemical
T1 sequence (P59807 25-1021): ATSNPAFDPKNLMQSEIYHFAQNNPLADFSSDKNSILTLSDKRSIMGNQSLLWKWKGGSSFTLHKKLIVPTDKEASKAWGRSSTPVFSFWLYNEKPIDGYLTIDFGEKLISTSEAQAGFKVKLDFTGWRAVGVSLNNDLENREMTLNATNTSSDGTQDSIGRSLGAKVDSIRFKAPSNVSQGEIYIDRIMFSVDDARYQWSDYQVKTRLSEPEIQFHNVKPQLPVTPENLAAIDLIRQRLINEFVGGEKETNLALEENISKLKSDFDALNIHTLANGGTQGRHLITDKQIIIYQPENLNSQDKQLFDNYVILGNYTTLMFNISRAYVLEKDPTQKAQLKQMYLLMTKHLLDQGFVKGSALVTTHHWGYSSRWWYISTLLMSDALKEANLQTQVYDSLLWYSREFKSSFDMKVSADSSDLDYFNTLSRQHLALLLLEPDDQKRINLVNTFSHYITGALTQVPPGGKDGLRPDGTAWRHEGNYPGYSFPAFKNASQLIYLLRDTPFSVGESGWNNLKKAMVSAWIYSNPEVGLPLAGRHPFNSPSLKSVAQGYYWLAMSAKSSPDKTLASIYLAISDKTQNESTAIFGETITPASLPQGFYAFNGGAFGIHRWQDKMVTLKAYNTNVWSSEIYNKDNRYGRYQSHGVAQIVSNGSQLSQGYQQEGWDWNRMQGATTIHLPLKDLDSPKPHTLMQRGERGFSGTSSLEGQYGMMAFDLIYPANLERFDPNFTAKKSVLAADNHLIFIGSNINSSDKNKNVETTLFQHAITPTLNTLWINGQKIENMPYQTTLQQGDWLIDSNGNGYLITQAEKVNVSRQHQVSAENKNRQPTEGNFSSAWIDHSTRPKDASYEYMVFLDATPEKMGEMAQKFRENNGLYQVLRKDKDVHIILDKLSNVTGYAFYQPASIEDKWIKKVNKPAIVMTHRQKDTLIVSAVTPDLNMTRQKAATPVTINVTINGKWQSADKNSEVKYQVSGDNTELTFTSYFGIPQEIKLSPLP
Description: In the case of using chondroitinase as a chemonucleolysis agent, the site of injection is a gel-like nucleus pulposus which is dense with chondroitin sulfate, collagen, and the other extra-cellular matrix. To evaluate the effect of these matrices on the inhibition, a disc dissolution assay can be conducted. In the experiment, the nucleus pulposus, of which chondroitin sulfate is composed of 65% dry weight, are collected from bovine tails. […]
Introducing the non-substrate GAG, e.g. heparin, into the solution together with the chondroitinase, results in suppression of the release of chondroitin sulfate tetrasaccharide and/or disaccharide from the nucleus pulposus sample, is therefore a strong indication of the inhibitory and antidote effect on the enzyme. This inhibition of tetrasaccharide/disaccharide release is reflected by the reduction of the absorbance at 232 nm when compared with the buffer solution in the presence chondroitinase only. […]
In disc dissolution assay, 6 intervertebral discs were obtained from a bovine tail. […] The absorbance at 232 nm of each solution was measured at 0 hours, 5 hours, and 20 hours after the immersion of the nucleus pulposus. The increase in absorbance was predominantly due to the dissolution of the small-molecule-containing unsaturated carbon-carbon double bond from the nucleus pulposus. […]

chondroitinase ABC [2] = biological target: T1, chondroitinase ABC; experiment: Chondroitinase enzyme inhibition assay, absorbance at 232 nm with chondroitin sulfate C; assay type: biochemical; conditions: 0.0125 mg/ml heparin; 0.01 U/ml chondroitinase ABC; 0.1 mg/ml chondroitin sulfate C; 37° C., 20 min
Description: Freeze-dried chondroitinase is reconstituted in 0.1-10 mg/ml BSA solution, preferably 1 mg/ml. The chondroitinase solution is serially diluted into a final concentration in the range of 0.065-0.35 U/ml, and more preferably 0.260-0.175 U/ml. Chondroitin sulfate C is dissolved in a buffer at pH 7.0-9.0, preferably at pH 8.0±0.1 with Tris-HCl, sodium phosphate, sodium acetate or sodium borate, preferably 10-250 mM, and more preferably 50 mM Tris-HCl as buffer. The final concentration of chondroitin sulfate C is at the range of 0.2-20 mg/ml. Chondroitinase solution and the chondroitin sulfate C solution are pre-incubated in 37° C. and mixed in a ratio of 1:50. The reaction mixture is further incubated for 20 min for allowing the enzymatic reaction proceeding. The absorbance of the reaction mixture is continuously monitored by spectrophotometer and the rate of the reaction is calculated by multiplying the slope of the absorbance-time curve with millimolar extinct coefficient of the reaction product at 232 nm (which is reported to be 5.5.). […]
2 mg/ml Chondroitin sulfate C solution was prepared by dissolving in buffer at pH 8.0 Tris-HCl (50 mM). […] The reaction mixture was further incubated at 37° C. for 20 min in spectrophotometer and the absorbance at 232 nm was continuously monitored. […] In FIG. 3, the absorbance of the solution without the presence of heparin at 232 nm increased linearly.

chondroitinase ABC [3] = biological target: T1, chondroitinase ABC; experiment: Electrophoretic mobility shift assay (EMSA) of chondroitinase ABC and heparin; assay type: binding; conditions: 20 μg chondroitinase ABC with 3.8 μg heparin (about 0.2 nmol each), room temperature 30 min
Description: Further experiments can be applied to show the direct interaction, or more precisely binding, between GAG and chondroitinase. One of the experimental methods that can show the direct interaction between non-substrate GAG and chondroitinase (without introducing other molecule, like the substrate) is the electrophoretic mobility shift (EMSA) assay.
The principle of EMSA is that the mobility of biomolecules under electrophoresis is affected by the size and charge of the biomolecule. […] The overall size will increase and the mobility is usually changed in the gel electrophoresis. In other words, a shift in the position of the biomolecule in the gel will be observed if there is binding between the biomolecules. For studying the interaction between chondroitinase and non-substrate GAG, EMSA is conducted as described. 5-30 μg chondroitinase is mixed with (a) 0.5 molar ratio, (b) equal molar, and (c) 2 folds molar excess of GAG, and incubated at room temperature for at least 20 min, and more preferred 30 min. These mixtures are loaded onto native polyacrylamide gel and subjected to electrophoresis for 2.5 hours at 100 V. Two identical gels are prepared but stained with different staining solution (Alcian blue for GAG, and Coomassie blue for chondroitinase). […]

intervertebral disc [4] = experiment: Disc height index (DHI) by Micro-CT after intradiscal injection in rabbits; assay type: in vivo, New Zealand rabbits; conditions: for DHI, with heparin / effect on DHI reduction caused by chondroitinase ABC: 0.35 mg heparin
Description: Being used as an antidote, the non-substrate GAG of the present invention is effective in vivo. In the case of chemonucleolysis by chondroitinase ABC, the enzyme is injected into the nucleus pulposus for partial digestion. The effective antidote will be able to inhibit the activity of chondroitinase ABC intradiscally, as well as the reduction of the size of the intervertebral disc. […] When comparing to the control animal, for which the intervertebral disc is injected with Chondroitinase ABC only, the reduction of the disc height can only be observed in the control animal. The detailed experimental result is illustrated in Example 6.
New Zealand rabbits weighing 2.5-3.0 kg were divided into two groups: (1) injection of Chondroitinase ABC (0.05 U and 0.15 U) and heparin (0.35 mg); and (2) injection of chondroitinase ABC (0.05 U and 0.15 U). Before injection of chondroitinase ABC with or without heparin, rabbits were fixed in the dorsal position and anesthetized by 10% chloral hydrate (1 ml/kg). The intervertebral disc (IVD) was located by means of portable x-ray fluoroscope and the injection of the chondroitinase ABC with or without heparin was under fluoroscopic guidance. Rabbits were sacrificed just after the injection and 3 weeks after of injection for collecting the spine. The disc height index (DHI) analyzed by using LaTheta™ Micro-CT scanners (Hitachi-Aloka) at a resolution of 48 um (FIG. 7) and is listed in Table 2.

chondroitinase ABC [5] = biological target: T1, chondroitinase ABC; experiment: Time profile of inhibition of chondroitinase ABC by heparin, absorbance at 232 nm; assay type: biochemical
Description: In one embodiment, the inhibition of chondroitinase ABC by heparin could be at a particular time point during the enzymatic treatment, so that the enzymatic action can be precisely terminated. […] The enzymatic reaction in the mixture, which is the digestion of the chondroitin sulfate polymer into unsaturated oligosaccharide or disaccharide, can be monitored at 232 nm with incubation in 37° C. The reaction can be incubated for 5 hours and at 1.5 and 2.5 hours, with suitable concentrations of heparin including, but not limited to, 0.1-0.01 times the chondroitin sulfate, being introduced for evaluating the time response of the inhibition effect. Detailed experimental results are illustrated in example 5.
Chondroitin sulfate and chondroitinase ABC were introduced into 50 mM Tris HCl buffered solution (pH 7.6), to a final concentration of 1 mg/ml and 0.001 U/ml. […] At time of 0 hour, 1.5 hour, and 2.5 hour, 0.01 mg/ml heparin was introduced into the reaction mixture separately into 3 reaction mixture, where the remaining reaction mixture was sampled and monitored at the same time interval as the 3 reaction mixture with heparin introduction. The progress of the enzymatic reaction was monitored by measuring the absorbance at 232 nm of a sample taken from the reaction mixture every 30 min.

intervertebral disc [6] = experiment: Disc height index (DHI) by Micro-CT after intradiscal injection in rabbits; assay type: in vivo, New Zealand rabbits; conditions: IVD injected with 0.05 U and 0.15 U chondroitinase ABC only

Substance	absorbance at 232 nm of solution (disc dissolution) (chondroitinase ABC [1]; 1U/ml chondroitinase ABC and 1 mg/ml heparin in PBS with 10 mM sodium lactate, 0, 5, 20 hours)	inhibition of enzymatic reaction of chondroitinase (absorbance at 232 nm) (chondroitinase ABC [2])	binding to chondroitinase ABC (EMSA, Alcian Blue stain) (chondroitinase ABC [3])	DHI, with heparin (intervertebral disc [4]; 0 day after injection, 0.05 U chondroitinase ABC)	DHI, with heparin (intervertebral disc [4]; 0 day after injection, 0.15 U chondroitinase ABC)	effect on DHI reduction caused by chondroitinase ABC (intervertebral disc [4]; 0.05 U chondroitinase ABC)	effect on DHI reduction caused by chondroitinase ABC (intervertebral disc [4]; 0.15 U chondroitinase ABC)	DHI, with heparin (intervertebral disc [4]; 3 weeks after injection, 0.05 U chondroitinase ABC)	DHI, with heparin (intervertebral disc [4]; 3 weeks after injection, 0.15 U chondroitinase ABC)	rate of increase in absorbance at 232 nm of the reaction mixture (chondroitinase ABC [5]; 0.01 mg/ml heparin introduced at 0, 1.5 or 2.5 hour, 1 mg/ml chondroitin sulfate, 0.001 U/ml chondroitinase ABC, 37° C., 5 hours)	persistence of inhibition of the enzymatic reaction (chondroitinase ABC [5]; 0.01 mg/ml heparin, throughout the 5 hours reaction period)	absorbance at 232 nm of solution (disc dissolution) (chondroitinase ABC [1]; 1U/ml chondroitinase ABC without heparin, compared with PBS and sodium lactate)	effect on DHI (intervertebral disc [6])	DHI, without heparin (intervertebral disc [4]; 0.05 U chondroitinase ABC only)	DHI, without heparin (intervertebral disc [4]; 0.15 U chondroitinase ABC only)	DHI, without heparin (intervertebral disc [4]; 3 weeks after injection, 0.05 U chondroitinase ABC only)	DHI, without heparin (intervertebral disc [4]; 3 weeks after injection, 0.15 U chondroitinase ABC only)
heparin	significantly reduced the absorbance	completely inhibited	binds tightly to the enzyme	0.081	0.085	significantly inhibited the DHI reduction	inhibited the DHI reduction but the inhibitory effect was not as significant as at the lower concentration	0.082	0.066	significantly reduced	remains stable and constant	–	–	–	–	–	–
Chondroitinase ABC	–	–	–	–	–	–	–	–	–	–	–	the absorbance increased remarkably	significantly reduction of DHI	0.082	0.071	0.044	0.048

Source: patent US20190249166A1, “Antidote for Chondroitinase” (priority 2018, published 2019)
